Test results as given in US9603899B2, “PDGF induced cell homing” (The Trustees of Columbia University in the City of New York, priority 2010, dated 2017).
“Also recorded” adds a separate entry of the source.

Experiments:
[1] = test system: alveolar stem/progenitor cells; experiment: Transwell migration assay; type: cell-based, human; details: for migration / recruitment of alveolar stem/progenitor cells: negative control serum-free medium, positive control DMEM with 15% FBS
Experimental: Transwell migration assay was performed to determine PDGF's ability to recruit alveolar stem/progenitor cells in a dose-response manner.

[2] = test system: alveolar stem/progenitor cells; details: 15 μM; chemically defined medium, calcein AM label

Compound	chemoattractant efficacy compared among PDGF isoforms ([1]; Transwell migration, compared with other PDGF isoforms and positive control 15% FBS)	migration / recruitment of alveolar stem/progenitor cells ([1]; Transwell migration)	capillary tubular formation [2]	PDGF concentration at which highest cell migration was observed ([1]; tested at 10 ng/ml, 25 ng/ml and 50 ng/ml) [ng/mL]
PDGF-BB: PDGF isoform composed of two B chains	most potent chemoattractant among all PDGF isoforms; also recorded: most robust efficacy, which was equal to positive control group with 15% fetal bovine serum; also recorded: higher rates of cell migration	induces robust, dose-dependent migration; also recorded: resulted in cell migration	–	–
PDGF-AA: PDGF isoform composed of two A chains	–	resulted in cell migration	–	–
C[S+]([O-])CCCCN=C=S (stereo not shown) [sulforaphane]	–	–	blocked	–
PDGF-AB: PDGF isoform composed of one A and one B chain	–	resulted in cell migration	–	–
platelet-derived growth factor [PDGF]	–	induces robust, dose-dependent migration; also recorded: cell migration was shown; also recorded: induced dose-dependent migration	–	50
